The test system of test [1] is seasonal allergic rhinitis patients. As to the kind of experiment: four double-blinded, randomized clinical trials in seasonal allergic rhinitis patients. The class given is in vivo, human. An excerpt: The clinical efficacy and safety of desloratadine has been documented in over 3,200 seasonal allergic rhinitis patients in four double-blinded, randomized clinical trials.
Efficacy endpoints in all the studies were Total Symptom Score, Total Nasal Symptom Score, Total Non-nasal Symptom Score, and Health Quality of Life (HQOL) analysis in efficacy trials. […] An important efficacy endpoint analyzed in the desloratadine studies is the AM NOW total symptom score. This parameter measures the total symptom relief by the patient after 24 hours before taking the next day dose.

Test [2] concerns patients with SAR. Briefly: pooled randomized, parallel-group, double-blind, placebo-controlled studies of nasal congestion/stuffiness in patients with SAR. The class given is in vivo, human. Conditions: for nasal congestion/stuffiness severity score (0-3), 14-day average change from baseline: baseline score 2.4. On the procedure:
The effects of desloratadine on nasal congestion/stuffiness are described by using data pooled from randomized, parallel-group, double-blind, placebo-controlled studies of desloratadine in patients with SAR. Patients (12-75 years; pooled n-659-662/group) with a ≧2-year history of seasonal allergic rhinitis and moderate-to-[…] severe symptoms present at the time of enrollment received desloratadine (5 mg or 7.5 mg) or placebo PO once a day for 14 days. The severity (0=none, 1=mild, 2=moderate, 3=severe) of congestion/stuffiness was assessed by patients for the study duration. The 14-day average change in symptom severity score from baseline was assessed. The mean symptom severity score for nasal congestion/stuffiness was 2.4 in each treatment group at baseline, indicating patients had moderate-to-severe nasal congestion before receiving treatment.

On to `Clc1ccc2c(c1)CCc1cccnc1C2=C1CCNCC1` [Desloratadine, desloratadine], for which, in test [1] (5 mg once daily, adult and adolescent SAR patients), the “total symptom scores (sum of individual scores for rhinorrhea, sneezing, congestion/stuffiness, nasal itching, itchy/burning eyes, tearing, ocular redness, itchy ears/palate)” value is reported as “significantly reduced”. In addition, in test [1] (5 mg, p<0.01 vs placebo), the “reducing nasal symptoms vs placebo” value is given as “significantly (p<0.01) more effective than placebo”. Further, the “AM NOW total symptom score (symptom relief after 24 hours, before next day dose)” value in test [1] (entire 5 mg to 20 mg dosage range, p<0.05) is recorded as “Statistically significant (p<0.05) reductions were maintained for the full 24 hour dosing interval”. The “nasal congestion/stuffiness severity score (0-3), 14-day average change from baseline” value is on record as “significantly decreased” in test [2] (5 mg PO once a day for 14 days, P=0.02 vs placebo) and “significantly decreased” in test [2] (7.5 mg PO once a day for 14 days, P=0.01 vs placebo). Besides, in test [2] (5 mg or 7.5 mg PO once a day for 14 days, vs placebo), the total symptom severity result is given as “significantly decreased”.

For the origin of these results see patent US20060276495A1, “Treatment methods of nasal congestion and nasal obstruction” (Schering Corporation, priority 2001, published 2006).
